Values quoted from earlier work, collected in PMC9885524 (Journal of natural products, 2023).

System: live SARS-CoV-2
Conditions: read-out: half-maximal effective concentrations against live SARS-CoV-2 in vitro; depending on the SARS-CoV-2 variant

For `Oc1ccc([C@@H]2c3c(O)cc(O)cc3[C@@H]3c4c(cc(O)cc4[C@H]2[C@@H]2c4cc(O)cc5c4[C@@H](c4cc(O)cc(O)c4[C@H]2c2ccc(O)cc2)[C@H](c2ccc(O)cc2)O5)O[C@H]3c2ccc(O)cc2)cc1` [(−)-hopeaphenol, (−)-Hopeaphenol], the EC50 is listed as 7.5 to 23 µM.
